In publication PMC8037569, “Neuroprotective Effect of Aurantio-Obtusin, a Putative Vasopressin V1A Receptor Antagonist, on Transient Forebrain Ischemia Mice Model” (International Journal of Molecular Sciences, 2021):
Read-outs that look alike come from different tables or passages of the source.

Tests used:
[1] = molecular target: T1, hV1AR (Homo sapiens, UniProt P37288); test: GPCR functional assay: intracellular Ca2+ mobilization in transfected CHO cells; type: cell-based; settings: for % Stimulation (agonist effect) of control agonist response, V1A (h): control response to 1 μM AVP
T1 construct: host or cells: CHO

[2] = system: dopamine receptors; parameters: method as in PMID 32280914; settings: at the tested concentrations; cited from earlier work
[3] = system: vasopressin receptors; parameters: method as in PMID 32280914; settings: at the tested concentrations; cited from earlier work
[4] = molecular target: T2, hD3 receptor (Homo sapiens, UniProt P35462); test: GPCR functional assay: cAMP modulation by HTRF in transfected CHO cells; type: cell-based; settings: for % Stimulation (agonist effect) of control agonist response, D3 (h): 100 µM test compound, control response to 300 nM dopamine; for inhibition at 100 µM: CHO, read-out: % Inhibition (antagonist effect) of control agonist response, D3 (h)
T2 construct: host or cells: CHO

[5] = molecular target: T3, h5-HT1AR (Homo sapiens, UniProt P08908); test: GPCR functional assay: intracellular Ca2+ mobilization in Ba/F3 cells; type: cell-based; settings: for % Inhibition (antagonist effect) of control agonist response, 5-HT1A (h) / % Stimulation (agonist effect) of control agonist response, 5-HT1A (h): 100 µM test compound; for % Inhibition (antagonist effect) of control agonist response, 5-HT1A (h): control response to 30 nM serotonin; for % Stimulation (agonist effect) of control agonist response, 5-HT1A (h): control response to serotonin (2.5 μM); for inhibition at 100 µM: BaF3, read-out: % Inhibition (antagonist effect) of control agonist response, 5-HT1A (h)
T3 construct: host or cells: Ba/F3 (murine pro-B)
T3 sequence (P08908 1-422): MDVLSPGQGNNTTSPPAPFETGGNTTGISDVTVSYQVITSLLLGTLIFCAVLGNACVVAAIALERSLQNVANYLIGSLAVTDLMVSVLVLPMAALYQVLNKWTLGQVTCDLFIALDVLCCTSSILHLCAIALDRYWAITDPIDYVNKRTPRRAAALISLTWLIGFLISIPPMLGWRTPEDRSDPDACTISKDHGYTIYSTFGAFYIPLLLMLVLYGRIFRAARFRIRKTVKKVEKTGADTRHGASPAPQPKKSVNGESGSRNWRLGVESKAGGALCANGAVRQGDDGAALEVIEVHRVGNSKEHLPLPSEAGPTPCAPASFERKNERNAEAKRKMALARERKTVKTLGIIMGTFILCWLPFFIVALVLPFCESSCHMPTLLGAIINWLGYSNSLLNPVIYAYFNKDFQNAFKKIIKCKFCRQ

[6] = molecular target: T4, hNK1R (Homo sapiens, UniProt P25103); test: GPCR functional assay: intracellular Ca2+ mobilization in U373MG cells; type: cell-based; settings: for % Inhibition (antagonist effect) of control agonist response, NK1 (h) / % Stimulation (agonist effect) of control agonist response, NK1 (h): 100 µM test compound; for % Inhibition (antagonist effect) of control agonist response, NK1 (h): control response to 1 nM [Sar9, Met(O2)11]-SP; for % Stimulation (agonist effect) of control agonist response, NK1 (h): control response to 30 nM [Sar9, Met(O2)11]-SP; for inhibition at 100 µM: U373 MG, read-out: % Inhibition (antagonist effect) of control agonist response, NK1 (h)
T4 construct: Human endogenous (U373MG cells); host or cells: U373MG

[7] = molecular target: angiotensin-converting enzyme (ACE); parameters: method as in PMID 18803227; settings: read-out: Inhibition of ACE activity, IC50; cited from earlier work
[8] = 100 µM test compound, control response to 10 nM AVP
[9] = CHO, read-out: % Inhibition (antagonist effect) of control agonist response, V1A (h)

T4 sequence (P25103 whole entry): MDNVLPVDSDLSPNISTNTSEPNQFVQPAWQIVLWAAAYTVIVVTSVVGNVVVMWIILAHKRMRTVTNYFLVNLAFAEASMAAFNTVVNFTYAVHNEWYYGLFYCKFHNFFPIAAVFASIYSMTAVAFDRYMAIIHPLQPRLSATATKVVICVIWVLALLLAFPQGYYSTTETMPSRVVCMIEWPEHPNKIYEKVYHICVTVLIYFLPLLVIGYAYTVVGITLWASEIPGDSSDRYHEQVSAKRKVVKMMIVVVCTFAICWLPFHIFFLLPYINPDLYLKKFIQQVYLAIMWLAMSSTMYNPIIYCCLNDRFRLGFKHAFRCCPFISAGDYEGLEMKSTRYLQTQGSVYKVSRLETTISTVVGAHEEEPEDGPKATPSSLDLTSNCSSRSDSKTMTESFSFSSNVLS
T2 sequence (P35462 whole entry): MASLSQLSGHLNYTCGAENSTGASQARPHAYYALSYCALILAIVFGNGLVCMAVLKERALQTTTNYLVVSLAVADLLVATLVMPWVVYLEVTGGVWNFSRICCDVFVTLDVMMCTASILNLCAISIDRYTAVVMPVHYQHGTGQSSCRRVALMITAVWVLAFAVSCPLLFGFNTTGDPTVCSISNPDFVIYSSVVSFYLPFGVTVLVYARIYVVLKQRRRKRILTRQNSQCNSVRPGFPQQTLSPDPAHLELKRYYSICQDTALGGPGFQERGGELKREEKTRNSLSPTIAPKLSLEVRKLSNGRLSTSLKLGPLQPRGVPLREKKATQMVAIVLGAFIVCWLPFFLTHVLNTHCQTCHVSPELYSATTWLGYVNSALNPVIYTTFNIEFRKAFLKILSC
T1 sequence (P37288 whole entry): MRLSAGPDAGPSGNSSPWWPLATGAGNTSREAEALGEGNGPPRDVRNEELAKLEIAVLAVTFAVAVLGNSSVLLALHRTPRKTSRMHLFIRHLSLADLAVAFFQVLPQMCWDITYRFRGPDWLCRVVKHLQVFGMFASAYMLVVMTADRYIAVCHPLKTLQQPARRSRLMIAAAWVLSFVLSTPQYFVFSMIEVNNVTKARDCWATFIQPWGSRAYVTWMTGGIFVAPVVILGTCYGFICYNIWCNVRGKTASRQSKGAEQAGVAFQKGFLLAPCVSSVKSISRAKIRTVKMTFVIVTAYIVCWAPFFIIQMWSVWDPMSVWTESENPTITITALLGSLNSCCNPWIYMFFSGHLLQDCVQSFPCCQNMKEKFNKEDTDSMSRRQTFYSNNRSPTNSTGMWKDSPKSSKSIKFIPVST

## COc1c(O)c(C)cc2c1C(=O)c1c(O)cc(O)cc1C2=O [2-Hydroxyemodin 1-methylether]
[1]; CHO, 12.5 µM, control response to 10 nM AVP, read-out: V1AR antagonist effect, % inhibition
  inhibition at 12.5 µM: 23.1%
[1]; CHO, 25 µM, control response to 10 nM AVP, read-out: V1AR antagonist effect, % inhibition
  inhibition at 25 µM: 26.5%
[1]; CHO, 50 µM, control response to 10 nM AVP, read-out: V1AR antagonist effect, % inhibition
  inhibition at 50 µM: 36.6%
[1]; CHO, 100 µM test compound, control response to 10 nM AVP, read-out: % Inhibition (antagonist effect) of control agonist response, V1A (h) (converted)
  inhibition at 100 µM: 42.3%

## Cc1cc2c(c(O)c1O)C(=O)c1c(O)cc(O)cc1C2=O [7-hydroxyemodin]
[2]
  Activity on dopamine receptors: showed activity
[3]
  Activity on vasopressin receptors: showed activity

## Cc1cc(=O)c2c(O)c3c(OC4OC(CO)C(O)C(O)C4O)cc(O)cc3cc2o1 (stereo not drawn) [Cassiaside]
[4]
  % Stimulation (agonist effect) of control agonist response, D3 (h): 14.75 ± 1.20%
  inhibition at 100 µM: -5.05%
[1]; [8]
  % Inhibition (antagonist effect) of control agonist response, V1A (h): negligible
[1]; 100 µM test compound
  % Stimulation (agonist effect) of control agonist response, V1A (h): 1.40 ± 2.83%
[1]; [9]
  inhibition at 100 µM: -9.9%
[5]
  % Inhibition (antagonist effect) of control agonist response, 5-HT1A (h): negligible
  % Stimulation (agonist effect) of control agonist response, 5-HT1A (h): 1.75 ± 0.07%
  inhibition at 100 µM: -13.4%
[6]
  % Inhibition (antagonist effect) of control agonist response, NK1 (h): negligible
  % Stimulation (agonist effect) of control agonist response, NK1 (h): −1.70 ± 0.14%
  inhibition at 100 µM: 20.5%

## FC(F)(F)c1cc(CO[C@H]2CCCN[C@H]2c2ccccc2)cc(C(F)(F)F)c1 [L 733,060, reference compound]
[6]; standard antagonist, read-out: Antagonist effect IC50, NK1 (h)
  IC50: 0.00058 µM

## COc1cc(OC2OC(COC3OC(CO)C(O)C(O)C3O)C(O)C(O)C2O)c2c(O)c3c(=O)cc(C)oc3cc2c1 (stereo not drawn) [Rubrofusarin Gentiobioside, Rubrofusarin 6-O-β-gentiobioside]
[4]
  % Stimulation (agonist effect) of control agonist response, D3 (h): 7.05 ± 1.63%
  inhibition at 100 µM: -0.05%
[1]; [8]
  % Inhibition (antagonist effect) of control agonist response, V1A (h): negligible
[1]; 100 µM test compound
  % Stimulation (agonist effect) of control agonist response, V1A (h): −4.40 ± 1.41%
[1]; [9]
  inhibition at 100 µM: -13.6%
[5]
  % Inhibition (antagonist effect) of control agonist response, 5-HT1A (h): negligible
  % Stimulation (agonist effect) of control agonist response, 5-HT1A (h): −0.30 ± 0.28%
  inhibition at 100 µM: 4.25%
[6]
  % Inhibition (antagonist effect) of control agonist response, NK1 (h): negligible
  % Stimulation (agonist effect) of control agonist response, NK1 (h): −1.40 ± 0.42%
  inhibition at 100 µM: 3.9%

## O=C1c2cccc(O)c2C(=O)c2c(O)cc(CO)cc21 [aloe-emodin]
[2]
  Activity on dopamine receptors: remained inactive
[3]
  Activity on vasopressin receptors: remained inactive

## Cc1cc(O)c2c(c1)C(=O)c1cc(O)cc(O)c1C2=O [emodin]
[2]
  Activity on dopamine receptors: showed activity
[3]
  Activity on vasopressin receptors: showed activity

## COc1c(O[C@@H]2O[C@H](CO)[C@@H](O)[C@H](O)[C@H]2O)cc2c(c1O)C(=O)c1c(cc(C)c(O)c1OC)C2=O [gluco-aurantio-obtusin]
[7]
  IC50: 30.24 ± 0.2 µM

## COc1cc(O)cc2c1C(=O)c1c(O)cc(C)cc1C2=O [questin]
[2]
  Activity on dopamine receptors: remained inactive
[3]
  Activity on vasopressin receptors: remained inactive
